The subject of data set [1] is AAPH-induced oxidation of linoleate. Nature of the data set: AAPH-induced peroxidation of linoleate (conjugated dienes at 234 nm). Format: biochemical. The settings on record: for A234 (amount of conjugated dienes formed by the peroxidative process): absorption at 234 nm after 150 min at 37° C., aminopyrazines at 10 μM, AAPH alone 0.37; for antioxidative activity (inhibition of lipid peroxidation), in words: comment on Table 2, 10 μM; for antioxidative activity (inhibition of AAPH-induced peroxidation of linoleic acid), in words: FIG. 3. Here is the method: In a preferred embodiment the synthetic derivatives of 2-amino-1,4-pyrazine of family I, characterized by two aryl substituents in positions C-3 and C-5, were endowed with unexpectedly high antioxidative properties (FIG. 1). […] AAPH 4 mM was added to a micellar solution of linoleate (0.16 mM). The rate of conjugated dienes formation was measured at 234 nm at 37° C. All aminopyrazines were tested at 5 μM.
The ability of the synthesized compounds to inhibit lipid peroxidation has been tested on AAPH-induced oxidation of linoleate. Briefly, a micellar solution of linoleate (0.16 mM) is incubated at 37° C. with 4 mM free radical generator AAPH (2,2′-azobis-2-methyl-propionamidine hydrochloride) in a microplate-based spectrophotometer. The production of conjugated dienes by the peroxidation of linoleate is monitored continuously at 234 nm. Antioxidants can both delay the onset of the oxidation process and reduce the rate of the oxidation.
The amount of conjugated dienes formed by the peroxidative process evaluated by the absorption at 234 nm after 150 min at 37° C. All aminopyrazines were tested at 10 μM.

The test system of data set [2] is Human keratinocytes cells (HaCaT). The data set is described as follows: Protective effect against UVB in HaCaT cells (LDH release). The settings on record: for Percentage Mortality (LDH assay), Unirradiated cells: 24 hours, no UVB; for mortality at 50 µM: Homo sapiens, light or radiation study, 30 min pre-incubation, UVB 200 mJ/cm^2, 24 hours, control 14.1, read-out: Percentage Mortality (LDH assay), UVB-irradiated cells. Format: cell-based. Here is the method: Human keratinocytes cells (HaCaT) were cultured in 96-well microplates. Tested compounds were solubilized in phosphate buffered saline (PBS) and applied to cells 30 minutes prior to the irradiation with UVB in a BIOSUN irradiation system (Vilbert-Lourmat). PBS was then replaced by the culture medium containing the tested compounds, and incubated for a further 24 hours before measuring the percentage of lactate dehydrogenase (LDH) released into the cell culture supernatant.
Keratinocytes were pre-incubated with aminopyrazines (50 μM) for 30 min and then irradiated with UVB at 200 mJ/cm^2 in the absence of the antioxidant. The cells were then incubated for a further 24 hours in the culture medium containing the tested compounds before measuring the percentage of lactate dehydrogenase (LDH) released into the cell culture supernatant.
Keratinocytes were pre-incubated with increasing concentrations of CD43 for 30 min and then irradiated with UVB at 200 mJ/cm^2. The cells were incubated for a further 24 hours before measuring the percentage of lactate dehydrogenase (LDH) released into the cell culture supernatant.
For orientation: LDH in the medium is a marker of cell lysis.

[3] abbreviates: FIG. 2, increasing concentrations of CD43.

Counter-ions that a name gives are not always drawn.

One may read the mortality as the share of the test organisms that died. Turning to `Nc1ncc(-c2ccc(O)cc2)nc1-c1ccc(O)cc1` [CD31, 2-amino-3,5-bis(p-hydroxyphenyl)-1,4-pyrazine], in data set [1], the “A234 (amount of conjugated dienes formed by the peroxidative process)” value is recorded as 0.08 and the “antioxidative activity (inhibition of lipid peroxidation), in words” value was “very active”. In data set [2] (50 μM), the “Percentage Mortality (LDH assay), Unirradiated cells” value (“Percentage Mortality (LDH assay)” below) is on record as 0% and the mortality at 50 µM came to 0%.

For `Nc1ncc(-c2ccc(O)cc2)nc1-c1ccccc1` [CD51, 2-amino-3-phenyl-5-(p-hydroxyphenyl)-1,4-pyrazine], the “rate of the oxidation, in words” value in data set [1] (FIG. 6, 5 μM) is “only reduces the rate of the oxidation”. Besides, in data set [1], the “A234 (amount of conjugated dienes formed by the peroxidative process)” value was determined as 0.12 and the “antioxidative activity (inhibition of lipid peroxidation), in words” value is “more activity”. Moreover, in data set [2] (50 μM), the “Percentage Mortality (LDH assay)” value is 0% and the mortality at 50 µM was 7.3%.

Regarding `CCOC(=O)C(C)Nc1nc(NC(C)C(=O)OCC)c(-c2ccc(O)cc2)nc1-c1ccc(O)cc1` (centres unmarked) [JFC38, 2,6-Bis(1′-ethoxycarbonyl-ethylamino)-3,5-bis(p-hydroxyphenyl)-1,4-pyrazine], the “antioxidative activity (inhibition of AAPH-induced peroxidation of linoleic acid), in words” value in data set [1] (5 μM) is “very active”.

With `COc1ccc(-c2cnc(N)c(-c3ccc(OC)cc3)n2)cc1` [CD29, 2-Amino-3,5-bis(p-methoxyphenyl)-1,4-pyrazine, reference compound], in data set [1], the “A234 (amount of conjugated dienes formed by the peroxidative process)” value is given as 0.37 and the “antioxidative activity (inhibition of lipid peroxidation), in words” value is on record as “reduced activities”.

Usually melting point stands for the temperature of the solid-liquid transition. For `Cc1nc2c(-c3ccc(O)cc3)[nH]c(-c3ccccc3)cn-2c1=O` (as salt: hydrochloride) (hydrate or solvate) [CD52, 2-Methyl-6-phenyl-8-(p-hydroxyphenyl)-3,7-dihydroimidazolo[1,2-a]pyrazin-3-one], the melting point is 99.5 °C (dec.).

Turning to `Cc1nc2c(-c3ccccc3)[nH]c(-c3ccc(O)cc3)cn-2c1=O` [CD53, 2-Methyl-6-(p-hydroxyphenyl)-8-phenyl-3,7-dihydroimidazolo[1,2-a]pyrazin-3-one], the “onset of the oxidation process, in words” value in data set [1] (FIG. 6, 5 μM) is “firstly delays the onset of the oxidation process”.

Consider `Nc1nc(N)c(-c2ccccc2)nc1-c1ccccc1` [JFC 33], for which the “antioxidative activity (inhibition of AAPH-induced peroxidation of linoleic acid), in words” value in data set [1] (5 μM) is recorded as “active”.

For `CCOC(=O)C(C)Nc1nc(NC(C)C(=O)OCC)c(-c2ccccc2)nc1-c1ccccc1` (centres unmarked) [JFC 39], the “antioxidative activity (inhibition of AAPH-induced peroxidation of linoleic acid), in words” value in data set [1] (5 μM) is given as “active”.

In the case of `Nc1ncc(-c2ccccc2)nc1-c1ccc(O)cc1` [CD46, 2-amino-3-(p-hydroxyphenyl)-5-phenyl-1,4-pyrazine], the “A234 (amount of conjugated dienes formed by the peroxidative process)” value in data set [1] amounted to 0.19. Moreover, in data set [2] (50 μM), the “Percentage Mortality (LDH assay)” value was 0% and the mortality at 50 µM was 0%. Further, in data set [2] (50 μM, UVB 200 mJ/cm^2), the “protection against UVB-induced cytotoxicity, in words” value is “very efficiently reduced the cytotoxicity of UVB”.

On to `CCOC(=O)C(C)Nc1nc(NC(C)C(=O)OCC)c(-c2ccc(O)cc2)nc1-c1ccc(O)cc1` (centres unmarked) (as salt: hydrochloride) [JFC38, 2,6-Bis(1′-ethoxycarbonyl-ethylamino)-3,5-bis(p-hydroxyphenyl)-1,4-pyrazine], for which the melting point was 175 °C (dec.).

As to `Nc1nc(N)c(-c2ccc(O)cc2)nc1-c1ccc(O)cc1` [JFC28, 2,6-diamino-3,5-bis(p-hydroxyphenyl)-1,4-pyrazine], in data set [1] (5 μM), the “antioxidative activity (inhibition of AAPH-induced peroxidation of linoleic acid), in words” value is “does not improve the activity”.

Regarding `Cc1nc2c(-c3ccc(O)cc3)[nH]c(-c3ccc(O)cc3)cn-2c1=O` [CD43, 2-Methyl-6,8-bis(p-hydroxyphenyl)-3,7-dihydroimidazolo[1,2-a]pyrazin-3-one], in data set [1] (setting [3]), the “onset of peroxidation, in words” value is given as “delay of the onset of peroxidation” and the “rate of oxidation after onset, in words” value is on record as “lower rate of oxidation after onset”. In addition, the “protection against UVB-induced mortality, in words” value in data set [2] (FIG. 4, increasing concentrations of CD43, UVB 200 mJ/cm^2) was “very efficiently protect cells against UVB-induced mortality”. Also, in data set [2] (controls), the “toxicity for cells, in words” value was “no toxicity for cells”.

(Values after patent US20040034225A1, “Aryl-substituted n, n-heterocyclic compounds, method for their preparationand their use in therapeutics and diagnostics” (priority 2000, published 2004).)
